Source: patent US20030013660A1, “Dioxolane analogs for improved inter-cellular delivery” (Shire BioChem Inc., priority 2000, published 2003)

Columns and labels:
Format in all cases: in vitro ADME
CEM/ARAC8C cells = test: Cellular uptake assay of [3H]nucleoside in nucleoside-transport deficient CEM/ARAC8C cells
Description: (§1) FIG. 1 Comparative uptake of 30 μM [^3H]-troxacitabine in CEM (Panel A) and CEM/ARAC8C (Panel B) cells. [^3H]-Uridine uptake in either the presence or absence of the hENT1 inhibitor, NBMPR or 5 mM non-radioactive uridine was included for comparison as a control substrate.

hCNT1 = biological target: T1, hCNT1 (Homo sapiens, UniProt O00337); test: Uptake by recombinant transporter in transiently transfected HeLa cells; details: 10 μM, 100 μM dilazep
T1 construct: expressed in transfected cells; host or cells: HeLa cells, transient transfection with pcDNA3-hCNT1
T1 sequence (O00337 1-649): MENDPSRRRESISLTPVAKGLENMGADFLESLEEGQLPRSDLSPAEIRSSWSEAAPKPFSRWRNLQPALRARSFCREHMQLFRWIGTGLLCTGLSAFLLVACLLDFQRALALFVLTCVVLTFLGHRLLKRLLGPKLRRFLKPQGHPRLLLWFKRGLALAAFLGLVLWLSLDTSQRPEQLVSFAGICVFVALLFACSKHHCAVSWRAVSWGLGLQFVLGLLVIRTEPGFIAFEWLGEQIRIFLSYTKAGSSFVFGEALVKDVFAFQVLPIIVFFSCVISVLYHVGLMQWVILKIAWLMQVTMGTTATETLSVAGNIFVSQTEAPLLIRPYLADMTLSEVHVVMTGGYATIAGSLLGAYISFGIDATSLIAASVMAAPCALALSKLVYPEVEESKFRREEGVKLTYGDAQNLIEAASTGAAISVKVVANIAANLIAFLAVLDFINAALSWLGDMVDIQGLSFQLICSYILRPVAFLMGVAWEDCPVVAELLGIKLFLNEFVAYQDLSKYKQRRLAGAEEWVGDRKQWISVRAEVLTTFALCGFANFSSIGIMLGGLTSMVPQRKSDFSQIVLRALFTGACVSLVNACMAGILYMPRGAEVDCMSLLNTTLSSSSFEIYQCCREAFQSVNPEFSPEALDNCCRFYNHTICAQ
Description: (§2) Transport assays were conducted in the presence of the equilibrative transport inhibitor, 100 μM dilazep and either in the presence ( ? ) or absence (▴) of […].sodium, and compared to HeLa cells transiently transfected with the empty vector control plasmic (▾).
(§3) Cancer Res., 56: 4187-4191.
(§4) Expression plasmids encoding recombinant hCNT1 and hCNT2 are prepared using conventional methods. […] The expression vectors are separately introduced into actively proliferating HeLa cells, following conventional methods. See, e.g., Fang et al (1996).
(§5) Recombinant hCNT1 and hCNT2 were separately introduced into HeLa cells by transient transfection of pcDNA3 plasmids containing the coding sequences of the relevant nucleoside transporter protein. […] Uptake of 10 μM [^3H]troxacitabine was not mediated either by hCNT1 or by hCNT2. Troxacitabine uptake by cib-activity (hCNT3) in differentiated HL-60 cells: […]

hCNT2 = biological target: T2, hCNT2 (Homo sapiens, UniProt O43868); test: as above; details: 10 μM, 100 μM dilazep
T2 construct: expressed in transfected cells; host or cells: HeLa cells, transient transfection with pcDNA3-hCNT2
T2 sequence (O43868 1-658): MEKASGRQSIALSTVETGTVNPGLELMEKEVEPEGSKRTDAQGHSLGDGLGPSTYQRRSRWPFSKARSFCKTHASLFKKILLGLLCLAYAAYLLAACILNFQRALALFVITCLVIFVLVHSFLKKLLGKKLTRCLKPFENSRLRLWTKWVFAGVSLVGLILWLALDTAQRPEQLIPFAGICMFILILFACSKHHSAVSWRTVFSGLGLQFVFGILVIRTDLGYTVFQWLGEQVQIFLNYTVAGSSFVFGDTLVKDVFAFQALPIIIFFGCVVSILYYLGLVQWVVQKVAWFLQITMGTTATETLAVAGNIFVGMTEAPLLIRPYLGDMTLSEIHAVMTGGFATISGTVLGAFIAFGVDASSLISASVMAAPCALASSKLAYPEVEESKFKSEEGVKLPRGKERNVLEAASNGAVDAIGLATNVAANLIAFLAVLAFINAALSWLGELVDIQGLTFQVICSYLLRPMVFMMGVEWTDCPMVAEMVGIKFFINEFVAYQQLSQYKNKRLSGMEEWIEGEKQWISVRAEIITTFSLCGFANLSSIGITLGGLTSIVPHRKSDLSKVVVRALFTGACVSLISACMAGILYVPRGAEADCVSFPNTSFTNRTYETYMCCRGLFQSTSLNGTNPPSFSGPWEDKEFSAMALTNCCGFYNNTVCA
Description: as §2, §3, §4, §5

hENT1 = biological target: T3, hENT1 (Homo sapiens, UniProt Q99808); test: Cellular uptake assay of [3H]nucleoside in CEM cells (es activity); parameters: endogenous in cells; details: compared with uridine
T3 sequence (Q99808 1-456): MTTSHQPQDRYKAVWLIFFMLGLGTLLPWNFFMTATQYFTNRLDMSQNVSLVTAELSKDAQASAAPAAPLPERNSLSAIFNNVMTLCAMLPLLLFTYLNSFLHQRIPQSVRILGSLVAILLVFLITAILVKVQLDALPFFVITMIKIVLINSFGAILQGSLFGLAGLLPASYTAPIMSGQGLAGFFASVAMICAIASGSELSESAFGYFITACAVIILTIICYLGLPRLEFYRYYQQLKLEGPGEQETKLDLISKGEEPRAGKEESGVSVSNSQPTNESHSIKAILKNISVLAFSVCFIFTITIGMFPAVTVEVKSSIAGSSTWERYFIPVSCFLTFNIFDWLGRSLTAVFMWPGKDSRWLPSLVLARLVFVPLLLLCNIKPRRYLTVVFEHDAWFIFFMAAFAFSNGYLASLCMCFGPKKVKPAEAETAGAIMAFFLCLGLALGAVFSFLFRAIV
Description: as §1, §3
The transport of [^3H]uridine was inhibited in the presence either of the hENT1 inhibitor, NBMPR, or excess non-radioactive uridine.

uptake of [3H]nucleoside over the 6-min time course (CEM/ARAC8C cells): taken up to a lesser degree
uptake mediated by hCNT1 (hCNT1): not mediated
uptake mediated by hCNT2 (hCNT2): not mediated
uptake of [3H]nucleoside over the 6-min time course (hENT1): taken up to a lesser degree
SMILES: Nc1ccn([C@@H]2CO[C@H](CO)O2)c(=O)n1 [Troxacitabine, troxacitabine]
